According to patent publication US10851089B2, “Matrix metalloproteinase (MMP) inhibitors and methods of use thereof” (Foresee Pharmaceuticals Co., Ltd., priority 2018, dated 2020):
Where two headings read alike, the source gives them in different places. Each block holds one compound with its values, some of them ahead of it.

Legend:
Format in all cases: biochemical
[1] = biological target: recombinant human MMP-12 catalytic domain (Homo sapiens (Human), UniProt P39900); assay: MMP-12 inhibitory assay (fluorogenic substrate cleavage)
Procedure: (§1) The inhibitory effect of compounds on the rate of cleaving fluorogenic MMP substrate (Enzo, BML-P128) by recombinant human MMP-12 catalytic domain (Enzo, BML-SE138) was carried out by methods known in the art. Briefly, to each well of a 96-well black opaque plate, all the reagents were sequentially added by pipetting, and the final reaction contained 4 nM of recombinant human MMP-12 catalytic domain, 4 μM of fluorogenic MMP substrate, and various concentrations (0.15 nM to 10,000 nM) of tested compound dilutions in HEPES buffer (pH 7.5) containing 10 mM of CaCl2, 0.01% Brij® 35 (polyoxyethylene (23) lauryl ether), and 0.1 mg/ml of BSA.
(§2) The enzyme and compounds were pre-incubated on a shaker to mix in wells. After an hour of mixing, fluorogenic substrate was added to each well. Reaction without enzyme was used as a blank control in the plate. The plate was then fed into a plate reader to measure fluorescence intensity at Excitation/Emission wavelengths of 340 nm/440 nm every 10 mins for at least 1 hour at 37° C. The IC50 of each compound in MMP-12 inhibition was determined by using a readout obtained at time point 30 minutes.

[2] = biological target: recombinant human MMP-2 (Homo sapiens (Human), UniProt P08253); assay: MMP selectivity assay MMP-2
Procedure: as §1, §2
(§3) The MMP selectivity assay was performed by using other recombinant human MMPs, including MMP-1, MMP-2, MMP-3, MMP-7, MMP-8, MMP-9, MMP-10, MMP-13, and MMP-14. The IC50 of the compounds for the other recombinant human MMPs was determined as described above in Example 1, and are shown in Table 2.

[3] = biological target: recombinant human MMP-9 (Homo sapiens (Human), UniProt P14780); assay: MMP selectivity assay MMP-9
Procedure: as §1, §2, §3

[4] = biological target: recombinant human MMP-3 (Homo sapiens (Human), UniProt P08254); assay: MMP selectivity assay MMP-3
Procedure: as §1, §2, §3

[5] = biological target: recombinant human MMP-13 (Homo sapiens (Human), UniProt P45452); assay: MMP selectivity assay MMP-13
Procedure: as §1, §2, §3

[6] = biological target: recombinant human MMP-8 (Homo sapiens (Human), UniProt P22894); assay: MMP selectivity assay MMP-8
Procedure: as §1, §2, §3

[7] = biological target: recombinant human MMP-7 (Homo sapiens (Human), UniProt P09237); assay: MMP selectivity assay MMP-7
Procedure: as §1, §2, §3

[8] = biological target: recombinant human MMP-10 (Homo sapiens (Human), UniProt P09238); assay: MMP selectivity assay MMP-10
Procedure: as §1, §2, §3

[9] = biological target: recombinant human MMP-14 (Homo sapiens (Human), UniProt P50281); assay: MMP selectivity assay MMP-14
Procedure: as §1, §2, §3

[10] = biological target: recombinant human MMP-1 (Homo sapiens (Human), UniProt P03956); assay: MMP selectivity assay MMP-1
Procedure: as §1, §2, §3

[11] = readout at 30 minutes, read-out: MMP-12 IC50
[12] = Table 2 selectivity profile, read-out: MMP-12 activity (IC50)

Chain of recombinant human MMP-9 (P14780 94-707): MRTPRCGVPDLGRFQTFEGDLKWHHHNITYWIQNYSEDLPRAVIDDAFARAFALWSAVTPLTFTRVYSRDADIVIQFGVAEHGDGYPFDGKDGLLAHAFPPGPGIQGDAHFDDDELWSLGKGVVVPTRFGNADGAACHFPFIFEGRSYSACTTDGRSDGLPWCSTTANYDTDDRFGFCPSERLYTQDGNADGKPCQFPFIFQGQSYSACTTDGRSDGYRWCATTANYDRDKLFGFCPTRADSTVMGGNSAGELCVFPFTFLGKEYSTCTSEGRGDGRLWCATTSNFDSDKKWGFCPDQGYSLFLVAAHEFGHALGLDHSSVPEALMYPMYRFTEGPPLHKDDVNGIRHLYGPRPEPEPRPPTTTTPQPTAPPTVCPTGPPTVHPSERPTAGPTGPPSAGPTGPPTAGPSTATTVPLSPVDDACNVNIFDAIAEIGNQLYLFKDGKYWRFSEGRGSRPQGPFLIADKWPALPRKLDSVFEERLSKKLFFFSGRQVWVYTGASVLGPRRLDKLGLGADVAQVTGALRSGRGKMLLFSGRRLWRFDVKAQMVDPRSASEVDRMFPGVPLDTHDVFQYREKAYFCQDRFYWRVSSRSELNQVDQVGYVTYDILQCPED
Chain of recombinant human MMP-10 (P09238 99-476): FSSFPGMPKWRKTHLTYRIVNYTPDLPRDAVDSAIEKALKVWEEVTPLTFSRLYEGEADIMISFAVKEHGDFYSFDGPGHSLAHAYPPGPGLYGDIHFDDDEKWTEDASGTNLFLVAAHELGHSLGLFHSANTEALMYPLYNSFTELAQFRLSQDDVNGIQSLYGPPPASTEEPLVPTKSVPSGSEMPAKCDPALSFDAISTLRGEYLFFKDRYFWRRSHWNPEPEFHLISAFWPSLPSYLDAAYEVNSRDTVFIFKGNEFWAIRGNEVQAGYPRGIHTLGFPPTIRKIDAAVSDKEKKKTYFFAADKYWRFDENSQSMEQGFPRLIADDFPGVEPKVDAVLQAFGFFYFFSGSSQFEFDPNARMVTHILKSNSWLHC
Chain of recombinant human MMP-2 (P08253 110-660): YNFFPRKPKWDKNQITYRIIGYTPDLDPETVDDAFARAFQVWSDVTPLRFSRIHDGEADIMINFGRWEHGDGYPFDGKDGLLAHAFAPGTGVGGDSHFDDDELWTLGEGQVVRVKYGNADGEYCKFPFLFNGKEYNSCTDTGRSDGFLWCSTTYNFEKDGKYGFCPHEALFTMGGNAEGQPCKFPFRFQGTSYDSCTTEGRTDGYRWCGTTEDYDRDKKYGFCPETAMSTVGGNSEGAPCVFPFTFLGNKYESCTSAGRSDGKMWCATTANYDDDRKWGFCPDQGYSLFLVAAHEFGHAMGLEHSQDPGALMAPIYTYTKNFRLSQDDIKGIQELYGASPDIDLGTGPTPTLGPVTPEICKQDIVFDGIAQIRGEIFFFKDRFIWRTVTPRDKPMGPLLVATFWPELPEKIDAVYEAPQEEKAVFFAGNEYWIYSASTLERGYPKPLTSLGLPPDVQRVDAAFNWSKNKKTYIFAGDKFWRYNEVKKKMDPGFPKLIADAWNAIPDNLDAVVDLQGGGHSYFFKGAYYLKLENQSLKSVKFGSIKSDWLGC
Chain of recombinant human MMP-1 (P03956 100-469): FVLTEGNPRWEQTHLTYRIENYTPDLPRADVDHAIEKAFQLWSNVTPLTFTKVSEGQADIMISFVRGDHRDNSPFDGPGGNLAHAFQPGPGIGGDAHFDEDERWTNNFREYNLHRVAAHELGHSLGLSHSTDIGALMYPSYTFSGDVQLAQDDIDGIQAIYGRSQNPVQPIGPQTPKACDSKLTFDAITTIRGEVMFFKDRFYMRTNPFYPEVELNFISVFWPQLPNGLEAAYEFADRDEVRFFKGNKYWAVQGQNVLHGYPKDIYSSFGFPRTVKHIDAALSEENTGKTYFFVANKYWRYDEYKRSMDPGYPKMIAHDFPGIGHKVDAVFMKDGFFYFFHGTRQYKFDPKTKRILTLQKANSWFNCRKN
Chain of recombinant human MMP-3 (P08254 100-477): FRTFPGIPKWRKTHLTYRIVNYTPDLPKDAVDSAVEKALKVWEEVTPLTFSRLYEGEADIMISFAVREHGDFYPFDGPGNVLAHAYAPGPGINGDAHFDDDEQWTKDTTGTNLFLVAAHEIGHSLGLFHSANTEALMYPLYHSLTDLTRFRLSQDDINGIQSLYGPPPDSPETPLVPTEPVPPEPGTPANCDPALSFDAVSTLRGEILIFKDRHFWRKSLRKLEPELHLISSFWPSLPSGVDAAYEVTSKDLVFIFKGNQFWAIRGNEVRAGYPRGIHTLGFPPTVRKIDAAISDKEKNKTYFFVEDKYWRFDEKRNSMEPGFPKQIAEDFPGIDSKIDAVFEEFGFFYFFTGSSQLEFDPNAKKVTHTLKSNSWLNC
Chain of recombinant human MMP-8 (P22894 101-467): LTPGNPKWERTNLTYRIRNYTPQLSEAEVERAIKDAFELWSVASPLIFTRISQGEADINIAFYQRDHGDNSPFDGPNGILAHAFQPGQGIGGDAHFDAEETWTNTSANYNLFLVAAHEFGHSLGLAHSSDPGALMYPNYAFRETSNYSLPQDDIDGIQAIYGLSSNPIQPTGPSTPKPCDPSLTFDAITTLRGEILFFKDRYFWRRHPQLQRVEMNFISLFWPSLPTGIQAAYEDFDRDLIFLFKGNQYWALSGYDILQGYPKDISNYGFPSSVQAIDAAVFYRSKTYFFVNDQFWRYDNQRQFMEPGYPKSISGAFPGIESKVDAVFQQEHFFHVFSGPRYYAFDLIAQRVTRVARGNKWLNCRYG
Chain of recombinant human MMP-7 (P09237 95-267): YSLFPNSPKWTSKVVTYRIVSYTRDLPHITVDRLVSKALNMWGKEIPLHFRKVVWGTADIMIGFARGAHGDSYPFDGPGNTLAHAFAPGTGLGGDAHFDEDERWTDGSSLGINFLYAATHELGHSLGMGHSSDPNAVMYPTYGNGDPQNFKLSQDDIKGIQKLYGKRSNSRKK
Chain of recombinant human MMP-12 catalytic domain (P39900 106-263): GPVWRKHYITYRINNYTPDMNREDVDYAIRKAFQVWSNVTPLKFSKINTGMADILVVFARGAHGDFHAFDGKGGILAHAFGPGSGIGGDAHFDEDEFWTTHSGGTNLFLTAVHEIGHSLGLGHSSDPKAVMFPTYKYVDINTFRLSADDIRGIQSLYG

Structure (SMILES): CCOc1cc(COc2ccc(Sc3ccoc3C3NC(=O)NC3=O)cc2)ccn1 (stereo not shown) [FC-14]
- IC50 [1, 11]: 10 to 100 nM

Structure (SMILES): Cc1ccnc(COc2ccc(Sc3ccoc3C3NC(=O)NC3=O)cc2)c1 (stereo not shown) [FC-1]
- IC50 [1, 11]: 100 to 1000 nM

Structure (SMILES): CCCOc1cccc(COc2ccc(Sc3ccoc3C3NC(=O)NC3=O)cc2)c1 (stereo not shown) [FC-22]
- IC50 [1, 11]: > 1000 nM

Structure (SMILES): CCOc1cccc(COc2ccc(Sc3ccoc3C3NC(=O)NC3=O)cc2)c1 (stereo not shown) [FC-20]
- IC50 [1, 11]: 100 to 1000 nM

Structure (SMILES): O=C1NC(=O)C(c2occc2Sc2ccc(OCc3ccc(CO)cc3)cc2)N1 (stereo not shown) [FC-25]
- IC50 [1, 11]: < 10 nM

Structure (SMILES): CC(C)COc1cc(COc2ccc(Sc3ccoc3C3NC(=O)NC3=O)cc2)ccn1 (stereo not shown) [FC-15]
- IC50 [1, 11]: 100 to 1000 nM

Structure (SMILES): CC(C)Oc1cccc(COc2ccc(Sc3ccoc3C3NC(=O)NC3=O)cc2)c1 (stereo not shown) [FC-21]
- IC50 [1, 11]: 100 to 1000 nM

Structure (SMILES): Cc1cccc(COc2ccc(Sc3ccoc3C3NC(=O)NC3=O)cc2)[n+]1O (stereo not shown) [FC-5]
- IC50 [1, 11]: > 1000 nM

Structure (SMILES): Cc1cccc(COc2ccc(Sc3ccoc3C3(C(C)C)NC(=O)NC3=O)cc2)c1 (stereo not shown) [FC-12]
- IC50 [1, 11]: < 10 nM

Structure (SMILES): O=C1NC(=O)C(c2occc2Sc2ccc(OCc3cccc(CO)c3)cc2)N1 (stereo not shown) [FC-23]
- IC50 [2]: 100 to 1000 nM
- IC50 [3]: 1000 to 10000 nM
- IC50 [4]: 1000 to 10000 nM
- IC50 [5]: 1000 to 10000 nM
- IC50 [6]: 1000 to 10000 nM
- IC50 [7]: > 10000 nM
- IC50 [8]: 1000 to 10000 nM
- IC50 [1, 12]: < 10 nM
- IC50 [1, 11]: < 10 nM
- IC50 [9]: 1000 to 10000 nM
- IC50 [10]: > 10000 nM

Structure (SMILES): NC(=O)c1ccc(COc2ccc(Sc3ccoc3C3NC(=O)NC3=O)cc2)cc1 (stereo not shown) [FC-18]
- IC50 [1, 11]: 10 to 100 nM

Structure (SMILES): COc1cc(COc2ccc(Sc3ccoc3C3NC(=O)NC3=O)cc2)ccn1 (stereo not shown) [FC-13]
- IC50 [1, 11]: 10 to 100 nM

Structure (SMILES): CCC1(c2occc2Sc2ccc(OCc3cccc(C)c3)cc2)NC(=O)NC1=O (stereo not shown) [FC-9]
- IC50 [1, 11]: 10 to 100 nM

Structure (SMILES): Cc1cccc(COc2ccc(Sc3ccoc3C3NC(=O)NC3=O)cc2)n1 (stereo not shown) [FC-2]
- IC50 [1, 11]: 10 to 100 nM

Structure (SMILES): Cc1cc(Sc2ccc(OCc3cccc(CO)c3)cc2)c(C2NC(=O)NC2=O)o1 (stereo not shown) [FC-27]
- IC50 [2]: 100 to 1000 nM
- IC50 [3]: 1000 to 10000 nM
- IC50 [4]: 100 to 1000 nM
- IC50 [5]: 100 to 1000 nM
- IC50 [6]: 100 to 1000 nM
- IC50 [7]: > 10000 nM
- IC50 [8]: 100 to 1000 nM
- IC50 [1, 12]: < 10 nM
- IC50 [1, 11]: < 10 nM
- IC50 [9]: 1000 to 10000 nM
- IC50 [10]: > 10000 nM

Structure (SMILES): Cc1cncc(COc2ccc(Sc3ccoc3C3NC(=O)NC3=O)cc2)c1 (stereo not shown) [FC-3]
- IC50 [1, 11]: 10 to 100 nM

Next, values leading:

- IC50 [1, 11]: 10 to 100 nM
Structure (SMILES): Cc1cccc(COc2ccc(Sc3cc(C)oc3C3NC(=O)NC3=O)cc2)c1 (stereo not shown) [FC-28]

- IC50 [1, 11]: 10 to 100 nM
Structure (SMILES): NC(=O)c1cc(COc2ccc(Sc3ccoc3C3NC(=O)NC3=O)cc2)ccn1 (stereo not shown) [FC-29]

- IC50 [1, 11]: 100 to 1000 nM
Structure (SMILES): Cc1cc(COc2ccc(Sc3ccoc3C3NC(=O)NC3=O)cc2)c[n+]([O-])c1 (stereo not shown) [FC-6]

- IC50 [1, 11]: > 1000 nM
Structure (SMILES): Cc1cc(CN(C)c2ccc(Sc3ccoc3C3NC(=O)NC3=O)cc2)ccn1 (stereo not shown) [FC-33]

- IC50 [2]: 100 to 1000 nM
- IC50 [3]: 1000 to 10000 nM
- IC50 [4]: 100 to 1000 nM
- IC50 [5]: 100 to 1000 nM
- IC50 [6]: 100 to 1000 nM
- IC50 [7]: > 10000 nM
- IC50 [8]: 100 to 1000 nM
- IC50 [1, 12]: < 10 nM
- IC50 [1, 11]: < 10 nM
- IC50 [9]: 1000 to 10000 nM
- IC50 [10]: > 10000 nM
Structure (SMILES): NC(=O)c1cccc(COc2ccc(Sc3ccoc3C3NC(=O)NC3=O)cc2)c1 (stereo not shown) [FC-17]

- IC50 [1, 11]: 100 to 1000 nM
Structure (SMILES): CC(C)Oc1cc(COc2ccc(Sc3ccoc3C3NC(=O)NC3=O)cc2)ccn1 (stereo not shown) [FC-16]

- IC50 [1, 11]: < 10 nM
Structure (SMILES): O=C1NC(=O)C(c2occc2Sc2ccc(OCc3cccc(O)c3)cc2)N1 (stereo not shown) [FC-26]

- IC50 [1, 11]: < 10 nM
Structure (SMILES): CCC1(c2occc2Sc2ccc(OCc3ccnc(C)c3)cc2)NC(=O)NC1=O (stereo not shown) [FC-32]

- IC50 [1, 11]: < 10 nM
Structure (SMILES): O=C1NC(=O)C(c2occc2Sc2ccc(OCc3ccccc3CO)cc2)N1 (stereo not shown) [FC-24]

- IC50 [1, 11]: < 10 nM
Structure (SMILES): Cc1cccc(COc2ccc(Sc3ccoc3C3(C)NC(=O)NC3=O)cc2)c1 (stereo not shown) [FC-8]

- IC50 [2]: 1000 to 10000 nM
- IC50 [3]: 1000 to 10000 nM
- IC50 [4]: 100 to 1000 nM
- IC50 [5]: 1000 to 10000 nM
- IC50 [6]: 1000 to 10000 nM
- IC50 [7]: > 10000 nM
- IC50 [8]: 1000 to 10000 nM
- IC50 [1, 12]: < 10 nM
- IC50 [1, 11]: < 10 nM
- IC50 [9]: 1000 to 10000 nM
- IC50 [10]: > 10000 nM
Structure (SMILES): Cc1cccc(COc2ccc(Sc3ccoc3C3(CC(C)C)NC(=O)NC3=O)cc2)c1 (stereo not shown) [FC-10]

- IC50 [1, 11]: 10 to 100 nM
Structure (SMILES): Cc1cc(COc2ccc(Sc3ccoc3C3NC(=O)NC3=O)cc2)cc[n+]1[O-] (stereo not shown) [FC-7]

- IC50 [2]: 1000 to 10000 nM
- IC50 [3]: 1000 to 10000 nM
- IC50 [4]: 100 to 1000 nM
- IC50 [5]: 1000 to 10000 nM
- IC50 [6]: 1000 to 10000 nM
- IC50 [7]: > 10000 nM
- IC50 [8]: 1000 to 10000 nM
- IC50 [1, 12]: < 10 nM
- IC50 [1, 11]: < 10 nM
- IC50 [9]: 1000 to 10000 nM
- IC50 [10]: > 10000 nM
Structure (SMILES): CCCC1(c2occc2Sc2ccc(OCc3cccc(C)c3)cc2)NC(=O)NC1=O (stereo not shown) [FC-11]
